Laboratory results: US8044075B2, “IL-8 receptor antagonists” (GlaxoSmithKline, priority 2006, dated 2011)

System: Primary human neutrophils
Experiment: Neutrophil chemotaxis assay (IL-8 or GRO-α as chemoattractant)
Assay type: cell-based
Settings: 0.75 h, IL-8 or GRO-α at EC80, 45 minutes, span over all compounds tested, units (nM, uM) given within the value, read-out: IC50 range of the compounds tested, neutrophil chemotaxis
Procedure: The in vitro inhibitory properties of these compounds were determined in a neutrophil chemotaxis assay. Primary human neutrophils were isolated from peripheral whole blood using percoll discontinuous gradient centrifugation, dextran sedimentation and hypotonic lysis. The chemoattractants IL-8 (CXCL8) or GRO-α (CXCL1) were placed in the bottom chamber of a 96 multi-well chamber (ChemoTx System, Neuro Probe, Gaithersburg, Md.). The agonist concentration used was an EC80 concentration. The two chambers are separated by a 5 um polycarbonate membrane. When compounds of this invention were tested, they were preincubated with the cells prior to placement on the top of the filter. Chemotaxis was allowed to proceed for 45 minutes in a humidified incubator at 37° C. with 5% CO2. At the end of the incubation period, the membrane was removed and the migrated cells in the bottom chamber were transferred to a 96-well plate. These cells were measured using a luminescent cell viability assay (Celltiter-Glo, Promega, Madison, Wis.). Each sample was tested in duplicate and each compound repeated at least three times. Positive control cells were cells without compound added and represent the maximum chemotactic response. The negative control (unstimulated) was with no chemokine added to the bottom chamber. The difference between the positive control and the negative control represents the chemotactic activity of the cells.

Row | IC50 | SMILES
1 | 63 to 8000 nM | CCNS(=O)(=O)c1ccc(F)c(C(=O)Nc2nnc(C(C)(C)c3ccccc3)s2)c1 [Example 1, 5-[(ethylamino)sulfonyl]-2-fluoro-N-[5-(1-methyl-1-phenylethyl)-1,3,4-thiadiazol-2-yl]benzamide]
2 | 63 to 8000 nM | CCNS(=O)(=O)c1cc(F)c(F)c(C(=O)Nc2nnc(-c3ccc(F)cc3)s2)c1 [Example 6, 5-[(ethylamino)sulfonyl]-2,3-difluoro-N-[5-(4-fluorophenyl)-1,3,4-thiadiazol-2-yl]benzamide]
3 | 63 to 8000 nM | CC(C)CNS(=O)(=O)c1ccc(F)c(C(=O)Nc2nnc(-c3ccc(F)cc3)s2)c1 [Example 18, 2-fluoro-N-[5-(4-fluorophenyl)-1,3,4-thiadiazol-2-yl]-5-{[(2-methylpropyl)amino]sulfonyl}benzamide]
4 | 63 to 8000 nM | O=C(Nc1nnc(-c2ccc(F)cc2)s1)c1cc(S(=O)(=O)Nc2ccccc2)ccc1F [Example 20, 2-fluoro-N-[5-(4-fluorophenyl)-1,3,4-thiadiazol-2-yl]-5-[(phenylamino)sulfonyl]benzamide]
5 | 63 to 8000 nM | CCNS(=O)(=O)c1cc(F)c(Cl)c(C(=O)Nc2nnc(-c3ccc(F)cc3)s2)c1 [Example 22, 2-chloro-5-[(ethylamino)sulfonyl]-3-fluoro-N-[5-(4-fluorophenyl)-1,3,4-thiadiazol-2-yl]-benzamide]
6 | 63 to 8000 nM | CCNS(=O)(=O)c1cc(F)c(F)c(C(=O)Nc2nnc(C(C)(C)C)s2)c1 [Example 27, N-[5-(1,1-dimethylethyl)-1,3,4-thiadiazol-2-yl]-5-[(ethylamino)sulfonyl]-2,3-difluorobcnzamidc]
7 | 63 to 8000 nM | CCNS(=O)(=O)c1cc(F)c(F)c(C(=O)Nc2nnc(C(C)(C)c3ccccc3)s2)c1 [Example 29, 5-[(ethylamino)sulfonyl]-2,3-difluoro-N-[5-(1-methyl-1-phenylethyl)-1,3,4-thiadiazol-2-yl]benzamide]
8 | 63 to 8000 nM | CC(C)(c1ccccc1)c1nnc(NC(=O)c2cc(S(N)(=O)=O)cc(Cl)c2Cl)s1 [Example 36, 5-(aminosulfonyl)-2,3-dichloro-N-[5-(1-methyl-1-phenylethyl)-1,3,4-thiadiazol-2-yl]benzamide]
9 | 63 to 8000 nM | CC(C)(C)c1nnc(NC(=O)c2cc(S(N)(=O)=O)ccc2F)s1 [Example 39, 5-(aminosulfonyl)-N-[5-(1,1-dimethylethyl)-1,3,4-thiadiazol-2-yl]-2-fluorobenzamide]
10 | 63 to 8000 nM | NS(=O)(=O)c1ccc(F)c(C(=O)Nc2nnc(-c3ccc(F)cc3)s2)c1 [Example 44, 5-(aminosulfonyl)-2-fluoro-N-[5-(4-fluorophenyl)-1,3,4-thiadiazol-2-yl] benzamide]
11 | 63 to 8000 nM | CC(C)(c1ccccc1)c1nnc(NC(=O)c2cc(S(=O)(=O)NC3CC3)ccc2F)s1 [Example 49, 5-[(cyclopropylamino)sulfonyl]2-fluoro-N-[5-(1-methyl-1-phenylethyl)-1,3,4-thiadiazol-2-yl]benzamide]
12 | 63 to 8000 nM | CCNS(=O)(=O)c1ccc(F)c(C(=O)Nc2nnc(C3(C)CCCCC3)s2)c1 [Example 57, 5-[(cthylamino)sulfonyl]-2-fluoro-N-[5-(1-methylcyclohexyl)-1,3,4-thiadiazol-2-yl] benzamide]
13 | 63 to 8000 nM | CCNS(=O)(=O)c1ccc(F)c(C(=O)Nc2nnc(C3CCCC3)s2)c1 [Example 58, N-(5-cyclopentyl-1,3,4-thiadiazol-2-yl)-5-[(ethylamino)sulfonyl]-2-fluorobenzamide]
14 | 63 to 8000 nM | CCNS(=O)(=O)c1ccc(F)c(C(=O)Nc2nnc(C3(C)CCCC3)s2)c1 [Example 59, 5-[(ethylamino)sulfonyl]-2-fluoro-N-[5-(1-methylcyclopentyl)-1,3,4-thiadiazol-2-yl]benzamide]
15 | 63 to 8000 nM | CCNS(=O)(=O)c1ccc(F)c(C(=O)Nc2nnc(C(C)(C)c3ccccc3F)s2)c1 [Example 63, 5-[(ethylamino)sulfonyl]-2-fluoro-N-{5-[1-(2-fluorophenyl)-1-methylethyl]-1,3,4-thiadiazol-2-yl}-benzamide]
16 | 63 to 8000 nM | O=C(Nc1nnc(C2(c3cccc(F)c3)CCC2)s1)c1cc(S(=O)(=O)NCC(F)(F)F)ccc1F [Example 72, 2-fluoro-N-{5-[1-(3-fluorophenyl)-cyclobutyl]-1,3,4-thiadiazol-2-yl}-5-([(2,2,2-trifluoroethyl)amino]-sulfonyl}benzamide]
17 | 63 to 8000 nM | CCNS(=O)(=O)c1ccc(F)c(C(=O)Nc2nnc(C3(c4cccc(F)c4)CCC3)s2)c1 [Example 76, 5-[(ethylamino)sulfonyl]-2-fluoro-N-{5-[1-(3-fluorophenyl)-cyclobutyl]-1,3,4-thiadiazol-2-yl}-benzamide]
18 | 63 to 8000 nM | O=C(Nc1nnc(C2(c3cccc(F)c3)CCC2)s1)c1cc(S(=O)(=O)NCC2CC2)ccc1F [Example 77, 5-{[(cyclopropylmethyl)amino]sulfonyl}-2-fluoro-N-{5-[1-(3-fluorophenyl)-cyclobutyl]-1,3,4-thiadiazol-2-yl}-benzamide]
19 | 63 to 8000 nM | CCNS(=O)(=O)c1ccc(F)c(C(=O)Nc2nnc(C3(c4ccccc4)CCC3)s2)c1 [Example 92, 5-[(ethylamino)sulfonyl]-2-fluoro-N-[5-(1-phenylcyclobutyl)-1,3,4-thiadiazol-2-yl]-benzamide]

System: GROα-induced expression of the integrin CD11b on neutrophils in human whole blood
Experiment: CD11b human whole blood assay
Assay type: cell-based
Settings: Neutrophil, 10 nM GROα, read-out: IC50, inhibition of GROα-induced CD11b expression
Procedure: The compounds indicated were tested for their ability to inhibit the GROα-induced expression of the integrin CD11b on neutrophils in human whole blood.
Blood was drawn (9 ml) using a butterfly line and a 10 ml syringe containing 0.2 ml of working Sodium Heparin. The blood was kept at 37° C. until placed on ice in step 5 below. Compound stock solutions were then diluted to 12 times the maximum final concentration, 120 uM. Half Log serial dilutions were then performed in vehicle. Ten microliters of the compound dilutions or vehicle were then added to the appropriate 12×75 polypropylene tubes. One hundred microliters of whole blood was added per tube and incubated for 10 minutes, in a 37° C. water bath with initial (gentle) agitation and again at 5 minutes. The GROα stock was diluted 1:166.66 in 0.1% BSA-DPBS to “12x” concentration of 120 nM and 10 ul of the GROα dilution or 0.1% BSA-DPBS was added to the appropriate tubes so that the final GROα concentration equaled 10 nM. The tubes were incubated for 10 min at 37° C. with gentle hand agitation and again at 5 minutes. Samples were then placed on ice and 250 ul of ice cold CellFix working dilution was added followed by a one minute incubation on ice. 1.5 ml Eppendorf tubes were readied during GROα incubation by adding the appropriate antibodies. Every tube received 10 ul of CD11b-FITC and 5 ul of CD 16-PE, except for the isotype control which received 10 ul of IgG2a-FITC instead of CD11b. Addition of 50 ul of the fixed blood from each tube was added to the appropriate Eppendorf tube. Samples were allowed to then incubate for 20 min at 4° C. in the dark. Addition of the blood/antibody mixtures to 500 ul of cold DPBS were added to the appropriately labeled 12×75 polystyrene tube. The resulting mixture was kept on ice. LDS stock (10 ul) was added and the mixture was incubated for 10 min at 4° C. before flow analysis. Samples were kept in a darkened environment. The LDS addition was staggered as the samples were collected on the flow cytometer so that all samples were run ˜10-20 minutes post-LDS addition. […]

Row | IC50 | SMILES
20 | < 5 µM | CCNS(=O)(=O)c1ccc(F)c(C(=O)Nc2nnc(C(C)(C)C)s2)c1 [Example 28, N-[5-(1,1-dimcthylcthyl)-1,3,4-thiadiazol-2-yl]-5-[(ethylamino)sulfonyl]-2-fluorobenzamide]
21 | < 5 µM | CCNS(=O)(=O)c1ccc(F)c(C(=O)Nc2nnc(C3(c4ccccc4)CCCC3)s2)c1 [Example 52, 5-[(ethylamino)sulfonyl]-2-fluoro-N-[5-(1-phenylcyclopentyl)-1,3,4-thiadiazol-2-yl]benzamide]
22 | < 5 µM | CC(C)(c1ccccc1)c1nnc(NC(=O)c2cc(S(N)(=O)=O)ccc2F)s1 [Example 61, 5-(aminosulfonyl)-2-fluoro-N-[5-(1-methyl-1-phenylethyl)-1,3,4-thiadiazol-2-yl]-benzamide]
